Experimental data reported in patent publication US10266545B2, “Coumarin derivative as antiviral agent, pharmaceutical composition thereof, its preparation and use” (I-NOVA MEDICINSKA ISTRAZIVANJA D.O.O., priority 2016, dated 2019).

What was measured:
[1] = Cytotoxicity (MNC, CC50) by MTT assay on uninfected MT-4 cell line; format: cell-based; conditions: human; MT-4 cells, 72 h, MTT; read-out: CC50 (cytotoxic concentration for 50% cells)
Method: (§1) Cell viability was estimated by a modification of the 3-(4,5-dimethylthiazol-2-yl)-2,5-diphenyltetrazolium bromide (MTT) assay, which is described in the literature reference 9: • 9) T. Mosmann: Rapid colorimetric assay for cellular growth and survival: Application to proliferation and cytotoxicity assays, J. Immunol.
(§2) Both MNC and CC50 values were evaluated simultaneously by morphological and by cell survival criteria. We used MTT-test, determining the living and early apoptotic cells.
(§3) The cells in the suspension culture are growing in clusters. […] Cells were passaged 1:3-1:5 at a density around 6-8·10^4 cells/ml, while the passage was re-suspended repeatedly.
(§4) Cell viability was estimated by a modification of the 3-(4,5-dimethylthiazol-2-yl)-2,5-diphenyltetrazolium bromide (MTT) assay, which is described in the reference 9.
(§5) Since the cell culture we have worked with were suspension, a solution of poly-L-lysine (PLL; Mw=90,000; Sigma-Aldrich, USA) was used for cell attachment on the bottom of a 96-well plate. The plates were treated with 100 μl of PLL at a concentration of 50 μg/ml in phosphate buffered saline (PBS; Sigma-Aldrich, USA), pH=7.4, then incubated for 1 h at room temperature. Followed aspiration of PLL solution and washing the plate twice with sterile PBS. Cells were then seeded at a concentration of 7-8·10^4 cells/100 μl for all experiments. Since the final volume of the culture medium in each well was 200 μl, additional 100 μl of 10% FBS (containing no cells) was added. For the purpose of the experiment, there was no need of forming a dense cell monolayer and after 24 h, when the adherent cells were stick to the plastic, the supernatant was decanted and adding 50 μl of previously prepared dilution of test compound. The well was completed with culture medium (150 μl) to a final volume of 200 μl. The plate was incubated at 37° C. and 5% content of CO2 for 3 days (72 h). Cells grown in medium without the test compound served as a control.
(§6) After 72 h incubation, the medium was replaced with MTT (Sigma Aldrich, USA) and dissolved at a final concentration of 5 mg/ml in serum-free medium, for further 3 h incubation. Then, the MTT-formazan product was solubilised in ethanol/dimethyl sulfoxide (DMSO; Sigma-Aldrich, USA) (1:1, V/V), and the optical density was measured at a test wavelength of 540 nm. Each experiment was performed in triplicate.
(§7) Cell viability was reported as the percentage (%) of viable cells in the wells treated with different concentrations of the test substance compared to the control cells untreated with the substances.

[2] = system: MT-4 cells; assay: as above; format: cell-based; conditions: for MNC (maximal non-toxic concentration): MT-4 cells, MTT
Method: as §1, §2, §3, §4, §5, §6, §7

[3] = system: HIV-1; assay: Viral load by FDA approved Real-Time PCR test (Abbott m2000) in HIV-1 infected MT-4 cells; format: cell-based, HIV-1 subtype B; conditions: acute infected MT-4 cells with HIV-1, treated at MNC 0.01 mM
Method: The preparation of the MT-4 cell line and HIV-1 culture was the same as in previously described studies. Monitoring of the amount of virions during anti-viral analysis by measuring of the viral load with FDA approved test was performed as follows: The study was conducted with Real-Time polymerase chain reaction (PCR) test for in vitro quantitative assay of HIV-I with automated system Abbott Molecular's m2000, approved by the United States (US) Food and Drug Administration (FDA), and with the CE mark. Extraction of viral nucleic acid was carried out with an automatic extractor with magnetic particles—Abbott Molecular's m2000sp and Real-Time amplification; detection was performed with m2000rt. The sensitivity and range of the test was 40 (1.6 log copies/ml) to 10,000,000 (7.0 log copies/ml) copies/ml by the extraction of 1 ml of sample. The target region of the viral genome was a fragment of the integrase gene pol. The test was designed to detect HIV-1 subtypes A-H, group […] and N. In every test sample, an internal control was placed.
The study included three controls: negative, low positive, and high positive with the following result: • (i) negative control—result negative (not detected); • (ii) low positive control—result 938 copies/ml (2.97 log) control levels; and • (iii) high positive control—result 92,927 copies/ml (4.97 log) control levels. […]

[4] = 72 h, highest concentration of 100 mM, could be due to DMSO
[5] = 72 h after treatment, concentration range from 10 mM to 0.01 mM

| SMILES | CC50 at 72 h [1] [mM] | microscopic observation of the morphology of the monolayer [2, 4] | microscopic observation of the morphology of the monolayer [2, 5] | MNC (maximal non-toxic concentration) ([2]; 72 h) [mM] | Viral load (log) [3] |
| --- | --- | --- | --- | --- | --- |
| O=c1oc2cc(O)cc(O)c2c(O)c1-c1coc2c1c(=O)oc1cc(O)cc(O)c12 [Compound 1, 7,9-dihydroxy-3-(4,5,7-trihydroxy-2-oxo-2H-chromene-3-yl)-4H-furo[3,2-c]chromen-4-one] | 10 | some morphology changes | typical cytopathology characterizing toxic effects were not registered | 0.01 | (3.01 log) |
| O=c1oc2cc(O)c(O)cc2c(O)c1-c1coc2c1c(=O)oc1cc(O)c(O)cc12 [Compound 2, 7,8-dihydroxy-3-(4,6,7-trihydroxy-2-oxo-2H-chromen-3-yl)-4H-furo[3,2-c]chromen-4-one, reference compound] | 10 | some morphology changes | typical cytopathology characterizing toxic effects were not registered | 0.01 | (3.09 log) |
